# Target: GCN2 (Homo sapiens (Human), UniProt Q9P2K8)
# Test: GCN2 Biochemical Assay (TR-FRET, GFP-eIF2S1 substrate phosphorylation)
# Details: read-out: IC50 (GCN2 Inhibitory Activity)
# Procedure, shortened: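 TR-FRET readout (Ex 340, Em 490/520 nm) after 2–3 h with Tb-labelled phospho-eIF2S1 antibody in stop mix, following a 70 min room-temperature kinase step. Reaction: in-house GCN2, GFP-eIF2S1, ATP, tRNA in Tris pH 7.5 (2× stocks 1.6 nM, 50 nM, 0.2 mM); compounds tested at 10 concentrations, with a phospho-substrate artifact counter-plate.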
# GCN2, sequence (Q9P2K8 whole entry): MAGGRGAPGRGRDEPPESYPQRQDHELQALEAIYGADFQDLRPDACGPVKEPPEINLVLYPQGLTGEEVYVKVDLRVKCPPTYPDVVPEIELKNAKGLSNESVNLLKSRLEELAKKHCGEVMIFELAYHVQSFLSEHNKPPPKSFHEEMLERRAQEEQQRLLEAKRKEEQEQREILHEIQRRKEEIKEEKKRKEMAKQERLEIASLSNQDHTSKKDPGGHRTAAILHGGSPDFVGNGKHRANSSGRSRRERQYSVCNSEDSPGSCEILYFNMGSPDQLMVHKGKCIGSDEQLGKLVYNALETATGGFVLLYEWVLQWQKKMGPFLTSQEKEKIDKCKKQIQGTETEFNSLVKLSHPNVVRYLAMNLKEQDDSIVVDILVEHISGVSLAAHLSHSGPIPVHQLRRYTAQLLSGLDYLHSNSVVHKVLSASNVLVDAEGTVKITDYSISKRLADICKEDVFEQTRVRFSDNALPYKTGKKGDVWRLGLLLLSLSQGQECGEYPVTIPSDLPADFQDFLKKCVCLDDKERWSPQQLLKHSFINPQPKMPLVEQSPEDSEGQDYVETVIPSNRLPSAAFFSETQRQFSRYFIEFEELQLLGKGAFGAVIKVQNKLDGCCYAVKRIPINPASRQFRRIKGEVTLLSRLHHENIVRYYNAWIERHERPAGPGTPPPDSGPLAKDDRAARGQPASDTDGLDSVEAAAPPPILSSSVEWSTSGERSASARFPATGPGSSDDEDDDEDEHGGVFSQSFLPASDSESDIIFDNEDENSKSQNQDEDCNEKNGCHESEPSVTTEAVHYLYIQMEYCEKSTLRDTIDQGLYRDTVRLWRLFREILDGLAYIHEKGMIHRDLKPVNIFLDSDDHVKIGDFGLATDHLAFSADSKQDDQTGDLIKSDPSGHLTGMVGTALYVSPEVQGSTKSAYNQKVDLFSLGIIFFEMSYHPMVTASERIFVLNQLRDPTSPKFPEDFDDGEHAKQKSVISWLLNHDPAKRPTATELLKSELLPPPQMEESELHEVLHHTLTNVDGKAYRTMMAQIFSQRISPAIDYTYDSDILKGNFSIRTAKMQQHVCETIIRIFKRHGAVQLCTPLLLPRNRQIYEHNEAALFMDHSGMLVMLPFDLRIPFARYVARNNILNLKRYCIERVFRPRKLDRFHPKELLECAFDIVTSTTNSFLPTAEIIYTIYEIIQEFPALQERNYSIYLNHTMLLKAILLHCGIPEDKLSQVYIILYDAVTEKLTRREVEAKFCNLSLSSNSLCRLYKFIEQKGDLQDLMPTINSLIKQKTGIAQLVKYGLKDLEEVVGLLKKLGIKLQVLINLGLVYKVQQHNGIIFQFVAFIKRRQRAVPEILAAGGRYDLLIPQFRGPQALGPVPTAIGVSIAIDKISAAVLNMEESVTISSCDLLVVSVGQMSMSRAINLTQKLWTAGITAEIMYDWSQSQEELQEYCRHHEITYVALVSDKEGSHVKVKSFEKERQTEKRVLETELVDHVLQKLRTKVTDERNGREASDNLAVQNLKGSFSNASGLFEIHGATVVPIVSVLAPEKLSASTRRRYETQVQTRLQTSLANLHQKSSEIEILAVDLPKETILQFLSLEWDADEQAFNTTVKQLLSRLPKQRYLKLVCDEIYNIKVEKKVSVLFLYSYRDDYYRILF
row,IC50 [nM],Structure (SMILES)
1,< 10,"Cc1cnc(Nc2cc(C)n(C)n2)nc1-c1c[nH]c2c(NC(=O)CN3C[C@@H](Oc4ccnc(NC5CC5)n4)CC3=O)cccc12 [Example 61, (S)-2-(4-((2-(cyclopropylamino)pyrimidin-4-yl)oxy)-2-oxopyrrolidin-1-yl)-N-(3-(2-((1,5-dimethyl-1H-pyrazol-3-yl)amino)-5-methylpyrimidin-4-yl)-1H-indol-7-yl)acetamide]"
2,100 to 1000,"Cc1cnc(Nc2cc(C)n(C)n2)nc1-c1c[nH]c2c(NC(=O)CN3CC[C@@H](C(=O)N4CCNC(=O)C4)C3)cccc12 [Example 66, (R)-N-(3-(2-((1,5-dimethyl-1H-pyrazol-3-yl)amino)-5-methylpyrimidin-4-yl)-1H-indol-7-yl)-2-(3-(3-oxopiperazine-1-carbonyl)pyrrolidin-1-yl)acetamide]"
3,100 to 1000,"Cc1cnc(Nc2cc(C)n(C)n2)nc1-c1c[nH]c2c(NC(=O)CN3CC[C@@H](C(=O)N4CCOCC4)C3)cccc12 [Example 67, (R)-N-(3-(2-((1,5-dimethyl-1H-pyrazol-3-yl)amino)-5-methylpyrimidin-4-yl)-1H-indol-7-yl)-2-(3-(morpholine-4-carbonyl)pyrrolidin-1-yl)acetamide]"
4,10 to 100,"Cc1cnc(Nc2cc(C)n(C)n2)nc1-c1c[nH]c2c(NC(=O)CN3CC[C@@H](C(=O)N4CCSCC4)C3)cccc12 [Example 68, (R)-N-(3-(2-((1,5-dimethyl-1H-pyrazol-3-yl)amino)-5-methylpyrimidin-4-yl)-1H-indol-7-yl)-2-(3-(thiomorpholine-4-carbonyl)pyrrolidin-1-yl)acetamide]"
5,10 to 100,"Cc1cnc(Nc2cc(C)n(C)n2)nc1-c1c[nH]c2c(NC(=O)CN3CC[C@@H](O)C3)cccc12 [Example 71, (R)-N-(3-(2-((1,5-dimethyl-1H-pyrazol-3-yl)amino)-5-methylpyrimidin-4-yl)-1H-indol-7-yl)-2-(3-hydroxypyrrolidin-1-yl)acetamide]"
6,10 to 100,"Cc1cnc(Nc2cc(C)n(C)n2)nc1-c1c[nH]c2c(NC(=O)CN3CC[C@H](O)C3)cccc12 [Example 72, (S)-N-(3-(2-((1,5-dimethyl-1H-pyrazol-3-yl)amino)-5-methylpyrimidin-4-yl)-1H-indol-7-yl)-2-(3-hydroxypyrrolidin-1-yl)acetamide]"
7,< 10,"Cc1cnc(Nc2cc(C)n(C)n2)nc1-c1c[nH]c2c(NC(=O)CN3CCC(Oc4ccncc4)C3)cccc12 (stereo not shown) [Example 76, N-(3-(2-((1,5-dimethyl-1H-pyrazol-3-yl)amino)-5-methylpyrimidin-4-yl)-1H-indol-7-yl)-2-(3-(pyridin-4-yloxy)pyrrolidin-1-yl)acetamide]"

# Further lines, the compound ahead of its results:
row,Structure (SMILES),IC50 [nM]
1,"Cc1cnc(Nc2cc(C)n(C)n2)nc1-c1c[nH]c2c(NC(=O)CN3C[C@@H](Oc4ccnc(NC5CC5)n4)C[C@H]3CN)cccc12 [Example 59, 2-((2S,4S)-2-(aminomethyl)-4-((2-(cyclopropylamino)pyrimidin-4-yl)oxy)pyrrolidin-1-yl)-N-(3-(2-((1,5-dimethyl-1H-pyrazol-3-yl)amino)-5-methylpyrimidin-4-yl)-1H-indol-7-yl)acetamide]",< 10
2,"Cc1cnc(Nc2cc(C)n(C)n2)nc1-c1c[nH]c2c(NC(=O)CN3CC[C@H](Oc4ccnc(NC5CC5)n4)C3=O)cccc12 [Example 60, (S)-2-(3-((2-(cyclopropylamino)pyrimidin-4-yl)oxy)-2-oxopyrrolidin-1-yl)-N-(3-(2-((1,5-dimethyl-1H-pyrazol-3-yl)amino)-5-methylpyrimidin-4-yl)-1H-indol-7-yl)acetamide]",10 to 100
3,"Cc1cnc(Nc2cc(C)n(C)n2)nc1-c1c[nH]c2c(NC(=O)CN3CC[C@H](C(=O)N4CCNC(=O)C4)C3)cccc12 [Example 62, (S)-N-(3-(2-((1,5-dimethyl-1H-pyrazol-3-yl)amino)-5-methylpyrimidin-4-yl)-1H-indol-7-yl)-2-(3-(3-oxopiperazine-1-carbonyl)pyrrolidin-1-yl)acetamide]",100 to 1000
4,"Cc1cnc(Nc2cc(C)n(C)n2)nc1-c1c[nH]c2c(NC(=O)CN3CC[C@H](C(=O)N4CCOCC4)C3)cccc12 [Example 63, (S)-N-(3-(2-((1,5-dimethyl-1H-pyrazol-3-yl)amino)-5-methylpyrimidin-4-yl)-1H-indol-7-yl)-2-(3-(morpholine-4-carbonyl)pyrrolidin-1-yl)acetamide]",100 to 1000
5,"Cc1cnc(Nc2cc(C)n(C)n2)nc1-c1c[nH]c2c(NC(=O)CN3CC[C@H](C(=O)N4CCSCC4)C3)cccc12 [Example 64, (S)-N-(3-(2-((1,5-dimethyl-1H-pyrazol-3-yl)amino)-5-methylpyrimidin-4-yl)-1H-indol-7-yl)-2-(3-(thiomorpholine-4-carbonyl)pyrrolidin-1-yl)acetamide]",10 to 100
6,"Cc1cnc(Nc2cc(C)n(C)n2)nc1-c1c[nH]c2c(NC(=O)CN3CC[C@@H](C(=O)N4CCN(C)CC4)C3)cccc12 [Example 65, (R)-N-(3-(2-((1,5-dimethyl-1H-pyrazol-3-yl)amino)-5-methylpyrimidin-4-yl)-1H-indol-7-yl)-2-(3-(4-methylpiperazine-1-carbonyl)pyrrolidin-1-yl)acetamide]",100 to 1000
7,"Cc1cnc(Nc2cc(C)n(C)n2)nc1-c1c[nH]c2c(NC(=O)CN3CC[C@H](C(=O)N4CC=CCC4)C3)cccc12 [Example 69, (S)-N-(3-(2-((1,5-dimethyl-1H-pyrazol-3-yl)amino)-5-methylpyrimidin-4-yl)-1H-indol-7-yl)-2-(3-(1,2,3,6-tetrahydropyridine-1-carbonyl)pyrrolidin-1-yl)acetamide]",10 to 100
8,"Cc1cnc(Nc2cc(C)n(C)n2)nc1-c1c[nH]c2c(NC(=O)CN3CCC(O)C3)cccc12 (stereo not shown) [Example 70, N-(3-(2-((1,5-dimethyl-1H-pyrazol-3-yl)amino)-5-methylpyrimidin-4-yl)-1H-indol-7-yl)-2-(3-hydroxypyrrolidin-1-yl)acetamide]",10 to 100
9,"Cc1cnc(Nc2cc(C)n(C)n2)nc1-c1c[nH]c2c(NC(=O)CN3CC[C@H](Oc4ccccn4)C3)cccc12 [Example 73, (S)-N-(3-(2-((1,5-dimethyl-1H-pyrazol-3-yl)amino)-5-methylpyrimidin-4-yl)-1H-indol-7-yl)-2-(3-(pyridin-2-yloxy)pyrrolidin-1-yl)acetamide]",10 to 100
10,"Cc1cnc(Nc2cc(C)n(C)n2)nc1-c1c[nH]c2c(NC(=O)CN3CC[C@@H](Oc4ccncc4)C3)cccc12 [Example 77, (R)-N-(3-(2-((1,5-dimethyl-1H-pyrazol-3-yl)amino)-5-methylpyrimidin-4-yl)-1H-indol-7-yl)-2-(3-(pyridin-4-yloxy)pyrrolidin-1-yl)acetamide]",10 to 100
11,"Cc1cnc(Nc2cc(C)n(C)n2)nc1-c1c[nH]c2c(NC(=O)CN3CC[C@H](Oc4ccncn4)C3)cccc12 [Example 78, (S)-N-(3-(2-((1,5-dimethyl-1H-pyrazol-3-yl)amino)-5-methylpyrimidin-4-yl)-1H-indol-7-yl)-2-(3-(pyrimidin-4-yloxy)pyrrolidin-1-yl)acetamide]",< 10
12,"Cc1cnc(Nc2cc(C)n(C)n2)nc1-c1c[nH]c2c(NC(=O)CN3CC[C@H](Oc4cnccn4)C3)cccc12 [Example 79, (S)-N-(3-(2-((1,5-dimethyl-1H-pyrazol-3-yl)amino)-5-methylpyrimidin-4-yl)-1H-indol-7-yl)-2-(3-(pyrazin-2-yloxy)pyrrolidin-1-yl)acetamide]",< 10
